Experimental data from patent US8895585B2, “Nicotinamide derivative or salt thereof” (FUJIFILM Corporation, priority 2010, dated 2014).

Columns and labels:
[1] = molecular target: T1, glutathione S-transferase (GST)-fused full-length human Syk protein (Homo sapiens, UniProt P43405); assay: Syk enzyme assay; assay type: biochemical; settings: Syk enzyme assay, Test Example 1; read-out: IC50 of Syk-inhibitory activity
T1 construct: (GST)-fused full-length human Syk protein; GST (glutathione S-transferase); purchased Carna Biosciences
Summary of the method: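 Baculovirus-expressed enzyme (1.2 ng) was preincubated with compound in HEPES pH 7.0/MgCl2/DTT buffer, 2 min shaking then 13 min at room temperature. Biotin-EDPDYEWPSA-NH2 (0.4 μM final) and ATP (27 μM final) were added for 40 min at room temperature. EDTA stop, streptavidin-XL/PT66-K TR-FRET at 615/665 nm gave IC50.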

THP-1 cells = assay: TNFα generation assay; assay type: cell-based, human; settings: Homo sapiens, THP-1, THP-1 cells; Table 22; read-out: IC50 in TNFα generation assay
Summary of the method: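 Secreted TNFα in supernatant quantified by ELISA or AlphaLISA after 7 h culture on human IgG-coated wells (10 μg/ml coating). Cells were IFN-γ-differentiated THP-1 (10 ng/ml, 2 days), exposed to compound for 30 min at room temperature before plating.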

Structure (SMILES)	IC50 [1]	IC50 (THP-1 cells)
CC[C@@H](Nc1nc(Nc2ccc(N3CCOCC3)nc2)c(C(N)=O)cc1F)[C@H](C)N [Example 006-265, 6-(((2S,3R)-2-aminopentan-3-yl)amino)-5-fluoro-2-((6-morpholinopyridin-3-yl)amino)nicotinamide]	10 to 50 nM	130 to 200 nM
CC[C@@H](Nc1nc(Nc2cccc3c2cnn3C)c(C(N)=O)cc1F)[C@H](C)N [Example 006-268, 6-(((2S,3R)-2-aminopentan-3-yl)amino)-5-fluoro-2-((1-methyl-1H-indazol-4-yl)amino)nicotinamide]	< 10 nM	< 65 nM
CC[C@@H](Nc1nc(Nc2cncc(F)c2)c(C(N)=O)cc1F)[C@H](C)N [Example 006-269, 6-(((2S,3R)-2-aminopentan-3-yl)amino)-5-fluoro-2-((5-fluoropyridin-3-yl)amino)nicotinamide]	10 to 50 nM	65 to 130 nM
CC[C@@H](Nc1nc(Nc2ccc3nc(OCCOC)ccc3c2)c(C(N)=O)cc1F)[C@H](C)N [Example 006-271, 6-(((2S,3R)-2-aminopentan-3-yl)amino)-5-fluoro-2-((2-(2-methoxyethoxy)quinolin-6-yl)amino)nicotinamide]	< 10 nM	< 65 nM
CCCC[C@H](CN)Nc1nc(Nc2ccc3ncccc3c2)c(C(N)=O)cc1F [Example 006-274, (R)-6-((1-aminohexan-2-yl)amino)-5-fluoro-2-(quinolin-6-ylamino)nicotinamide]	< 10 nM	65 to 130 nM
CC[C@@H](Nc1nc(Nc2cncc(-c3ccc(OC)cc3)c2)c(C(N)=O)cc1F)[C@H](C)N [Example 006-277, 6-(((2S,3R)-2-aminopentan-3-yl)amino)-5-fluoro-2-((5-(4-methoxyphenyl)pyridin-3-yl)amino)nicotinamide]	< 10 nM	65 to 130 nM
CC[C@@H](Nc1nc(Nc2cncc(-c3ccc(OC)cc3F)c2)c(C(N)=O)cc1F)[C@H](C)N [Example 006-279, 6-(((2S,3R)-2-aminopentan-3-yl)amino)-5-fluoro-2-((5-(2-fluoro-4-methoxyphenyl)pyridin-3-yl)amino)nicotinamide]	< 10 nM	65 to 130 nM
CC[C@@H](Nc1nc(Nc2ccnc(-c3cccc(OC)c3F)c2)c(C(N)=O)cc1F)[C@H](C)N [Example 006-281, 6-(((2S,3R)-2-aminopentan-3-yl)amino)-5-fluoro-2-((2-(2-fluoro-3-methoxyphenyl)pyridin-4-yl)amino)nicotinamide]	< 10 nM	< 65 nM
CCC[C@@H](Nc1nc(Nc2cncc(-c3ccc(OC)cc3)c2)c(C(N)=O)cc1F)[C@H](C)N [Example 006-285, 6-(((2S,3R)-2-aminohexan-3-yl)amino)-5-fluoro-2-((5-(4-methoxyphenyl)pyridin-3-yl)amino)nicotinamide]	< 10 nM	65 to 130 nM
CCC[C@@H](Nc1nc(Nc2cncc(-c3cccc(OC)c3F)c2)c(C(N)=O)cc1F)[C@H](C)N [Example 006-286, 6-(((2S,3R)-2-aminohexan-3-yl)amino)-5-fluoro-2-((5-(2-fluoro-3-methoxyphenyl)pyridin-3-yl)amino)nicotinamide]	< 10 nM	< 65 nM
CCC[C@@H](Nc1nc(Nc2cncc(-c3ccc(OC)cc3F)c2)c(C(N)=O)cc1F)[C@H](C)N [Example 006-287, 6-(((2S,3R)-2-aminohexan-3-yl)amino)-5-fluoro-2-((5-(2-fluoro-4-methoxyphenyl)pyridin-3-yl)amino)nicotinamide]	< 10 nM	65 to 130 nM
CCC[C@@H](Nc1nc(Nc2ccnc(-c3cccc(OC)c3F)c2)c(C(N)=O)cc1F)[C@H](C)N [Example 006-289, 6-(((2S,3R)-2-aminohexan-3-yl)amino)-5-fluoro-2-((2-(2-fluoro-3-methoxyphenyl)pyridin-4-yl)amino)nicotinamide]	< 10 nM	< 65 nM
CCC[C@@H](Nc1nc(Nc2ccnc(-c3cc(OC)ccc3F)c2)c(C(N)=O)cc1F)[C@H](C)N [Example 006-290, 6-(((2S,3R)-2-aminohexan-3-yl)amino)-5-fluoro-2-((2-(2-fluoro-5-methoxyphenyl)pyridin-4-yl)amino)nicotinamide]	< 10 nM	< 65 nM
COc1ccc(-c2cncc(Nc3nc(N[C@@H](CN)CC(C)C)c(F)cc3C(N)=O)c2)cc1 [Example 006-291, (R)-6-((1-amino-4-methylpentan-2-yl)amino)-5-fluoro-2-((5-(4-methoxyphenyl)pyridin-3-yl)amino)nicotinamide]	10 to 50 nM	130 to 200 nM
CCCC[C@H](CN)Nc1nc(Nc2cncc(-c3ccccc3)c2)c(C(N)=O)cc1F [Example 006-295, (R)-6-((1-aminohexan-2-yl)amino)-5-fluoro-2-((5-phenylpyridin-3-yl)amino)nicotinamide]	10 to 50 nM	130 to 200 nM
CCC[C@@H](Nc1nc(Nc2cncc(Cl)c2)c(C(N)=O)cc1F)[C@H](C)N [Example 006-297, 6-(((2S,3R)-2-aminohexan-3-yl)amino)-2-((5-chloropyridin-3-yl)amino)-5-fluoronicotinamide]	< 10 nM	65 to 130 nM
CCC[C@@H](Nc1nc(Nc2cncc(-n3nccn3)c2)c(C(N)=O)cc1F)[C@H](C)N [Example 006-298, 2-((5-(2H-1,2,3-triazol-2-yl)pyridin-3-yl)amino)-6-(((2S,3R)-2-aminohexan-3-yl)amino)-5-fluoronicotinamide]	< 10 nM	< 65 nM
CCC[C@@H](Nc1nc(Nc2ccnc(-n3cncn3)c2)c(C(N)=O)cc1F)[C@H](C)N [Example 006-300, 2-((2-(1H-1,2,4-triazol-1-yl)pyridin-4-yl)amino)-6-(((2S,3R)-2-aminohexan-3-yl)amino)-5-fluoronicotinamide]	< 10 nM	< 65 nM
CCC[C@@H](Nc1nc(Nc2ccc(C)nc2)c(C(N)=O)cc1F)[C@H](C)N [Example 006-302, 6-(((2S,3R)-2-aminohexan-3-yl)amino)-5-fluoro-2-((6-methylpyridin-3-yl)amino)nicotinamide]	10 to 50 nM	130 to 200 nM

The remaining lines, values ahead:

IC50 [1]	IC50 (THP-1 cells)	Structure (SMILES)
< 10 nM	< 65 nM	CC[C@@H](Nc1nc(Nc2ccnc(OC)c2)c(C(N)=O)cc1F)[C@H](C)N [Example 006-266, 6-(((2S,3R)-2-aminopentan-3-yl)amino)-5-fluoro-2-((2-methoxypyridin-4-yl)amino)nicotinamide]
< 10 nM	< 65 nM	CC[C@@H](Nc1nc(Nc2cc(OC)nc(OC)c2)c(C(N)=O)cc1F)[C@H](C)N [Example 006-267, 6-(((2S,3R)-2-aminopentan-3-yl)amino)-2-((2,6-dimethoxypyridin-4-yl)amino)-5-fluoronicotinamide]
10 to 50 nM	65 to 130 nM	CC[C@@H](Nc1nc(Nc2cnc(C)c(C3CC3)c2)c(C(N)=O)cc1F)[C@H](C)N [Example 006-272, 6-(((2S,3R)-2-aminopentan-3-yl)amino)-2-((5-cyclopropyl-6-methylpyridin-3-yl)amino)-5-fluoronicotinamide]
< 10 nM	< 65 nM	C[C@H](N)[C@@H](C)Nc1nc(Nc2ccc3ncccc3c2)c(C(N)=O)cc1F [Example 006-275, 6-(((2R,3S)-3-aminobutan-2-yl)amino)-5-fluoro-2-((quinolin-6-yl)amino)nicotinamide]
< 10 nM	< 65 nM	CC[C@@H](Nc1nc(Nc2cncc(-c3cccc(OC)c3)c2)c(C(N)=O)cc1F)[C@H](C)N [Example 006-276, 6-(((2S,3R)-2-aminopentan-3-yl)amino)-5-fluoro-2-((5-(3-methoxyphenyl)pyridin-3-yl)amino)nicotinamide]
< 10 nM	< 65 nM	Cn1ncc2cc(Nc3nc(N[C@@H](CN)CC4CC4)c(F)cc3C(N)=O)ccc21 [Example 006-282, (R)-6-((1-amino-3-cyclopropylpropan-2-yl)amino)-5-fluoro-2-((1-methyl-1H-indazol-5-yl)amino)nicotinamide]
< 10 nM	130 to 200 nM	CCC[C@@H](Nc1nc(Nc2cncc(-c3cccc(OC)c3)c2)c(C(N)=O)cc1F)[C@H](C)N [Example 006-284, 6-(((2S,3R)-2-aminohexan-3-yl)amino)-5-fluoro-2-((5-(3-methoxyphenyl)pyridin-3-yl)amino)nicotinamide]
< 10 nM	130 to 200 nM	CCC[C@@H](Nc1nc(Nc2cncc(-c3cc(OC)ccc3F)c2)c(C(N)=O)cc1F)[C@H](C)N [Example 006-288]
< 10 nM	65 to 130 nM	CCCC[C@H](CN)Nc1nc(Nc2cnc3cc(OC)ccc3c2)c(C(N)=O)cc1F [Example 006-293, (R)-6-((1-aminohexan-2-yl)amino)-5-fluoro-2-((7-methoxyquinolin-3-yl)amino)nicotinamide]
10 to 50 nM	65 to 130 nM	CCCC[C@H](CN)Nc1nc(Nc2cncc(-n3cccn3)c2)c(C(N)=O)cc1F [Example 006-294, (R)-2-((5-(1H-pyrazol-1-yl)pyridin-3-yl)amino)-6-((1-aminohexan-2-yl)amino)-5-fluoronicotinamide]
< 10 nM	65 to 130 nM	CCC[C@@H](Nc1nc(Nc2cnc(C)c(C)c2)c(C(N)=O)cc1F)[C@H](C)N [Example 006-296, 6-(((2S,3R)-2-aminohexan-3-yl)amino)-2-((5,6-dimethylpyridin-3-yl)amino)-5-fluoronicotinamide]
< 10 nM	< 65 nM	CCC[C@@H](Nc1nc(Nc2ccnc(-n3ccnn3)c2)c(C(N)=O)cc1F)[C@H](C)N [Example 006-299, 2-((2-(1H-1,2,3-triazol-1-yl)pyridin-4-yl)amino)-6-(((2S,3R)-2-aminohexan-3-yl)amino)-5-fluoronicotinamide]
